Experimental data from patent publication US4725621A, “CL-1957E antibiotic compound and its production” (priority 1986, dated 1988).
Converted amounts (≈) assume the structure as drawn. Structures can show the parent of a compound that is named as a salt.

Key:
solubility in water = assay type: physicochemical; conditions: lyophilized triethylammonium salt
Protocol: A cooled solution of triethylamine (2.45 ml, 0.176 mmol) in 7.55 ml of water is added dropwise with stirring to a solution of 100 mg (0.176 mmol) of CL-1957E in 2.5 ml of methanol. The resulting solution is concentrated to a final volume of about 2 ml on a rotary evaporator and then diluted to 40 ml with water. Two-milliliter aliquots of this solution were added to each of several 6-ml vials.

Alcaligenes viscolactis = assay: antimicrobial activity, broth microdilution (Mueller-Hinton broth); assay type: cell-based; conditions: culture number 21698, read-out: Minimal Inhibitory Concentration (MIC)
Protocol: (§1) The antimicrobial activity of CL-1957E was evaluated using the broth microdilution method. Serial dilutions of CL-1957E were made in Muellar-Hinton broth for bacteria and in yeast extract-peptone-dextrose broth for the fungi.

Bacillus cereus = assay: as above; assay type: cell-based; conditions: culture number 04810, read-out: Minimal Inhibitory Concentration (MIC)
Protocol: as §1

Bacillus megaterium = assay: as above; assay type: cell-based; conditions: Priestia megaterium; culture number 066; read-out: Minimal Inhibitory Concentration (MIC)
Protocol: as §1

Branhamella catarrhalis = assay: as above; assay type: cell-based; conditions: Moraxella catarrhalis; culture number 03596; read-out: Minimal Inhibitory Concentration (MIC)
Protocol: as §1

Escherichia coli = assay: as above; assay type: cell-based; conditions: culture number 04863, read-out: Minimal Inhibitory Concentration (MIC)
Protocol: as §1

Micrococcus luteus = assay: as above; assay type: cell-based; conditions: culture number 05064, read-out: Minimal Inhibitory Concentration (MIC)
Protocol: as §1

Pseudomonas aeruginosa = assay: as above; assay type: cell-based; conditions: culture number 05111, read-out: Minimal Inhibitory Concentration (MIC)
Protocol: as §1

Salmonella typhimurium = assay: as above; assay type: cell-based; conditions: Salmonella enterica, culture number TA1535, read-out: Minimal Inhibitory Concentration (MIC)
Protocol: as §1

Staphylococcus aureus = assay: as above; assay type: cell-based; conditions: culture number 02482, read-out: Minimal Inhibitory Concentration (MIC)
Protocol: as §1

Streptococcus faecalis = assay: as above; assay type: cell-based; conditions: Enterococcus faecalis; culture number 05045; read-out: Minimal Inhibitory Concentration (MIC)
Protocol: as §1

Streptococcus pneumoniae = assay: as above; assay type: cell-based; conditions: culture number SV1, read-out: Minimal Inhibitory Concentration (MIC)
Protocol: as §1

Streptococcus pyogenes = assay: as above; assay type: cell-based; conditions: culture number C203, read-out: Minimal Inhibitory Concentration (MIC)
Protocol: as §1

Mucor parasiticus = assay: antimicrobial activity, broth microdilution (yeast extract-peptone-dextrose broth); assay type: cell-based; conditions: culture number M2652, read-out: Minimal Inhibitory Concentration (MIC)
Protocol: as §1

Rhizopus japonicus = assay: as above; assay type: cell-based; conditions: culture number M1557, read-out: Minimal Inhibitory Concentration (MIC)
Protocol: as §1

Rhodotorula aurantiaca = assay: as above; assay type: cell-based; conditions: Buckleyzyma aurantiaca; culture number M1508; read-out: Minimal Inhibitory Concentration (MIC)
Protocol: as §1

Saccharomyces cerevisiae = assay: as above; assay type: cell-based; conditions: culture number S288, read-out: Minimal Inhibitory Concentration (MIC)
Protocol: as §1

[1] = test system: Schizosaccharomyces pombe; assay: as above; assay type: cell-based; conditions: culture number M1388, read-out: Minimal Inhibitory Concentration (MIC)
Protocol: as §1

Torulopsis albida = assay: as above; assay type: cell-based; conditions: Naganishia albida; culture number M1390; read-out: Minimal Inhibitory Concentration (MIC)
Protocol: as §1

P388 leukemia = assay: in vivo activity against P388 leukemia in mice; conditions: Days 1-5, P388 inoculated intraperitoneally Day 0
Protocol: The in vivo activity of CL-1957E against P388 leukemia in mice was assayed using the protocol established in Cancer Chemotherapy Reports, Vol. 3, Part 3, 1-87 (1972). The results of these tests are presented in Table 7 in terms of %T/C values which are the ratios of mean survival times of treated to control animals, expressed as percentages.

[2] = test system: L1210 mouse leukemia cells; assay: in vitro cytotoxicity against L1210 mouse leukemia cells; assay type: cell-based; conditions: read-out: ID50 (cytotoxicity)
Protocol: (§2) The cytotoxicity of CL-1957E against L1210 mouse leukemia cells and against human colon adenocarcinoma (HCT 8) cells was measured in vitro. The ID50 values appear in Table 8.

[3] = test system: human colon adenocarcinoma (HCT 8) cells; assay: in vitro cytotoxicity against human colon adenocarcinoma (HCT 8) cells; assay type: cell-based; conditions: read-out: ID50 (cytotoxicity)
Protocol: as §2

In the case of CC(/C=C/C1OC(=O)C=CC1C)=C\C(C)C/C=C/C(C)=C/C(CO)C(=O)C(C)C(O)C(C)C/C(C)=C/C(=O)O (stereo not shown) [CL-1957E triethylammonium salt], the solubility in water (solubility in water) is reported as “soluble in water”.
In the case of CC(/C=C/C1OC(=O)C=CC1C)=C\C(C)C/C=C/C(C)=C/C(CO)C(=O)C(C)C(O)C(C)C/C(C)=C/C(=O)O (stereo not shown) [CL-1957E, 19-(3,6-dihydro-3-methyl-6-oxo-2H-pyran-2-yl)-6-hydroxy-9-(hydroxymethyl)-3,5,7,11,15,17-hexamethyl-8-oxo-2,10,12,16,18-nonadecapentaenoic acid], the MIC (Alcaligenes viscolactis) is reported as no more than 0.46 µg/mL, the MIC (Bacillus cereus) is reported as no more than 0.46 µg/mL and the MIC (Bacillus megaterium) is reported as no more than 0.46 µg/mL. It also gave an MIC (Branhamella catarrhalis) of no more than 0.46 µg/mL, an MIC (Escherichia coli) greater than 1000 µg/mL and an MIC (Micrococcus luteus) of no more than 0.46 µg/mL. For the same compound, the MIC (Pseudomonas aeruginosa) was greater than 1000 µg/mL, the MIC (Salmonella typhimurium) was greater than 1000 µg/mL and the MIC (Staphylococcus aureus) was no more than 0.46 µg/mL. It also gave an MIC (Streptococcus faecalis) of no more than 0.46 µg/mL, an MIC (Streptococcus pneumoniae) of no more than 0.46 µg/mL and an MIC (Streptococcus pyogenes) of no more than 0.46 µg/mL. It also gave an MIC (Mucor parasiticus) greater than 1000 µg/mL, an MIC (Rhizopus japonicus) greater than 1000 µg/mL and an MIC (Rhodotorula aurantiaca) greater than 1000 µg/mL. For the same compound, the MIC (Saccharomyces cerevisiae) was greater than 1000 µg/mL, the MIC [1] was 12.3 µg/mL (≈ 22.7 µM) and the MIC (Torulopsis albida) was greater than 1000 µg/mL. The “% T/C (ratio of mean survival times of treated to control animals)” value (P388 leukemia; 25 μg/kg/injection) was 130%, the “% T/C (ratio of mean survival times of treated to control animals)” value (P388 leukemia; 50 μg/kg/injection) was 139% and the “% T/C (ratio of mean survival times of treated to control animals)” value (P388 leukemia; 100 μg/kg/injection) was 153%. For the same compound, the “% T/C (entry in words: toxicity)” value (P388 leukemia; 200 μg/kg/injection) was “Toxic”, the IC50 [2] was 3.4 ng/mL (≈ 0.00626 µM) and the IC50 [3] was 1 ng/mL (≈ 0.00184 µM).
